Laboratory results taken from patent US8394848B2, “Compounds that modulate intracellular calcium” (Calcimedica, Inc., priority 2008, dated 2013).

tested on: JR251 or RBL cells; assay: Store-operated calcium entry, either JR251 or RBL cells, or both; format: cell-based
Procedure, shortened: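 Orai1/STIM1 stable cells: fluo-4-AM loaded, compound 30 min at RT in Ca2+-free HBSS, then CaCl2 added; IC50 from Peak-Basal FLIPR fluorescence. RBL-2H3 cells: compound 5 min, then thapsigargin (5.5× stock, 5.5 uM) 25 min, then calcium added; IC50 from Upslope (signal 7 s after calcium minus baseline).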

IC50 [µM]	Compound
< 10	O=C(Nc1scc(-c2ccc(Cl)cc2)c1C(=O)O)c1cnc(C(F)(F)F)nc1 [4-(4-chlorophenyl)-2-(2-(trifluoromethyl)pyrimidine-5-carboxamido)thiophene-3-carboxylic acid]
< 10	O=C(O)c1c(-c2ccc(Cl)cc2)csc1NC(=O)C(F)Cc1ccccc1 (centres unmarked) [4-(4-chlorophenyl)-2-(2-fluoro-3-phenylpropanamido)thiophene-3-carboxylic acid]
< 10	CC(C(=O)Nc1scc(-c2ccc(Cl)cc2)c1C(=O)O)C(C)c1ccccc1 (centres unmarked) [4-(4-chlorophenyl)-2-(2-methyl-3-phenylbutanamido)thiophene-3-carboxylic acid]
< 10	CC(Cc1ccccc1)C(=O)Nc1scc(-c2ccc(Cl)cc2)c1C(=O)O (centres unmarked) [4-(4-chlorophenyl)-2-(2-methyl-3-phenylpropanamido)thiophene-3-carboxylic acid]
< 10	Cc1oc(-c2ccccc2)cc1C(=O)Nc1scc(-c2ccc(Cl)cc2)c1C(=O)O [4-(4-chlorophenyl)-2-(2-methyl-5-phenylfuran-3-carboxamido)thiophene-3-carboxylic acid]
< 10	O=C(COc1ccccc1)Nc1scc(-c2ccc(Cl)cc2)c1C(=O)O [4-(4-chlorophenyl)-2-(2-phenoxyacetamido)thiophene-3-carboxylic acid]
< 10	O=C(Cc1ccccc1)Nc1scc(-c2ccc(Cl)cc2)c1C(=O)O [4-(4-chlorophenyl)-2-(2-phenylacetamido)thiophene-3-carboxylic acid]
< 10	O=C(CC(c1ccccc1)c1ccccc1)Nc1scc(-c2ccc(Cl)cc2)c1C(=O)O [4-(4-chlorophenyl)-2-(3,3-diphenylpropanamido)thiophene-3-carboxylic acid]
< 10	Cc1noc(C)c1C(=O)Nc1scc(-c2ccc(Cl)cc2)c1C(=O)O [4-(4-chlorophenyl)-2-(3,5-dimethylisoxazole-4-carboxamido)thiophene-3-carboxylic acid]
< 10	O=C(CCc1ccc(F)cc1F)Nc1scc(-c2ccc(Cl)cc2)c1C(=O)O [4-(4-chlorophenyl)-2-(3-(2,4-difluorophenyl)propanamido)thiophene-3-carboxylic acid]
< 10	O=C(O)c1c(-c2ccc(Cl)cc2)csc1NC(=O)C(F)Cc1c(Cl)cccc1Cl (centres unmarked) [4-(4-chlorophenyl)-2-(3-(2,6-dichlorophenyl)-2-fluoropropanamido)thiophene-3-carboxylic acid]
< 10	O=C(CCc1c(Cl)cccc1Cl)Nc1scc(-c2ccc(Cl)cc2)c1C(=O)O [4-(4-chlorophenyl)-2-(3-(2,6-dichlorophenyl)propanamido)thiophene-3-carboxylic acid]
< 10	Cc1cccc(C)c1CCC(=O)Nc1scc(-c2ccc(Cl)cc2)c1C(=O)O [4-(4-chlorophenyl)-2-(3-(2,6-dimethylphenyl)propanamido)thiophene-3-carboxylic acid]
< 10	N#CC(Cc1ccccc1Cl)C(=O)Nc1scc(-c2ccc(Cl)cc2)c1C(=O)O (centres unmarked) [4-(4-chlorophenyl)-2-(3-(2-chlorophenyl)-2-cyanopropanamido)thiophene-3-carboxylic acid]
< 10	O=C(O)c1c(-c2ccc(Cl)cc2)csc1NC(=O)C(F)Cc1ccccc1Cl (centres unmarked) [4-(4-chlorophenyl)-2-(3-(2-chlorophenyl)-2-fluoropropanamido)thiophene-3-carboxylic acid]
< 10	O=C(CCc1ccccc1Cl)Nc1scc(-c2ccc(Cl)cc2)c1C(=O)O [4-(4-chlorophenyl)-2-(3-(2-chlorophenyl)propanamido)thiophene-3-carboxylic acid]
< 10	N#Cc1ccccc1CCC(=O)Nc1scc(-c2ccc(Cl)cc2)c1C(=O)O [4-(4-chlorophenyl)-2-(3-(2-cyanophenyl)propanamido)thiophene-3-carboxylic acid]
< 10	O=C(NCc1ccccc1F)Nc1scc(-c2ccc(Cl)cc2)c1C(=O)O [4-(4-chlorophenyl)-2-(3-(2-fluorobenzyl)ureido)thiophene-3-carboxylic acid]
< 10	O=C(CCc1ccccc1F)Nc1scc(-c2ccc(Cl)cc2)c1C(=O)O [4-(4-chlorophenyl)-2-(3-(2-fluorophenyl)propanamido)thiophene-3-carboxylic acid]
< 10	O=C(CCc1ccc(F)c(F)c1)Nc1scc(-c2ccc(Cl)cc2)c1C(=O)O [4-(4-chlorophenyl)-2-(3-(3,4-difluorophenyl)propanamido)thiophene-3-carboxylic acid]
< 10	O=C(CCc1cccc(Cl)c1)Nc1scc(-c2ccc(Cl)cc2)c1C(=O)O [4-(4-chlorophenyl)-2-(3-(3-chlorophenyl)propanamido)thiophene-3-carboxylic acid]
< 10	O=C(CCc1cccc(F)c1)Nc1scc(-c2ccc(Cl)cc2)c1C(=O)O [4-(4-chlorophenyl)-2-(3-(3-fluorophenyl)propanamido)thiophene-3-carboxylic acid]

IC50 [µM]	Compound
< 10	O=C(CCc1ccc(Cl)cc1)Nc1scc(-c2ccc(Cl)cc2)c1C(=O)O [4-(4-chlorophenyl)-2-(3-(4-chlorophenyl)propanamido)thiophene-3-carboxylic acid]
< 10	O=C(CCc1ccc(F)cc1)Nc1scc(-c2ccc(Cl)cc2)c1C(=O)O [4-(4-chlorophenyl)-2-(3-(4-fluorophenyl)propanamido)thiophene-3-carboxylic acid]
< 10	O=C(NCC1CCCCC1)Nc1scc(-c2ccc(Cl)cc2)c1C(=O)O [4-(4-chlorophenyl)-2-(3-(cyclohexylmethyl)ureido)thiophene-3-carboxylic acid]
< 10	O=C(CCc1ccco1)Nc1scc(-c2ccc(Cl)cc2)c1C(=O)O [4-(4-chlorophenyl)-2-(3-(furan-2-yl)propanamido)thiophene-3-carboxylic acid]
< 10	O=C(CCc1cccs1)Nc1scc(-c2ccc(Cl)cc2)c1C(=O)O [4-(4-chlorophenyl)-2-(3-(thiophen-2-yl)propanamido)thiophene-3-carboxylic acid]
< 10	Cc1cccc2nc(C(=O)Nc3scc(-c4ccc(Cl)cc4)c3C(=O)O)c(F)n12 [4-(4-chlorophenyl)-2-(3-fluoro-5-methylimidazo[1,2-a]pyridine-2-carboxamido)thiophene-3-carboxylic acid]
< 10	CC(C)(CC(=O)Nc1scc(-c2ccc(Cl)cc2)c1C(=O)O)c1ccccc1 [4-(4-chlorophenyl)-2-(3-methyl-3-phenylbutanamido)thiophene-3-carboxylic acid]
< 10	Cc1ccsc1C(=O)Nc1scc(-c2ccc(Cl)cc2)c1C(=O)O [4-(4-chlorophenyl)-2-(3-methylthiophene-2-carboxamido)thiophene-3-carboxylic acid]
< 10	O=C(NCCc1ccccc1)Nc1scc(-c2ccc(Cl)cc2)c1C(=O)O [4-(4-chlorophenyl)-2-(3-phenethylureido)thiophene-3-carboxylic acid]
< 10	O=C(Nc1scc(-c2ccc(Cl)cc2)c1C(=O)O)c1c[nH]nc1-c1ccccc1 [4-(4-chlorophenyl)-2-(3-phenyl-1H-pyrazole-4-carboxamido)thiophene-3-carboxylic acid]
< 10	O=C(O)c1c(-c2ccc(Cl)cc2)csc1NC(=O)C(Cc1ccccc1)n1cnnn1 (centres unmarked) [4-(4-chlorophenyl)-2-(3-phenyl-2-(1H-tetrazol-1-yl)propanamido)thiophene-3-carboxylic acid]
< 10	CC(CC(=O)Nc1scc(-c2ccc(Cl)cc2)c1C(=O)O)c1ccccc1 (centres unmarked) [4-(4-chlorophenyl)-2-(3-phenylbutanamido)thiophene-3-carboxylic acid]
< 10	O=C(CCc1ccccc1)Nc1scc(-c2ccc(Cl)cc2)c1C(=O)O [4-(4-chlorophenyl)-2-(3-phenylpropanamido)thiophene-3-carboxylic acid]
< 10	O=C(C#Cc1ccccc1)Nc1scc(-c2ccc(Cl)cc2)c1C(=O)O [4-(4-chlorophenyl)-2-(3-phenylpropiolamido)thiophene-3-carboxylic acid]
< 10	O=C(Nc1scc(-c2ccc(Cl)cc2)c1C(=O)O)c1cc2c(Cl)cc(Cl)cc2[nH]1 [4-(4-chlorophenyl)-2-(4,6-dichloro-1H-indole-2-carboxamido)thiophene-3-carboxylic acid]
< 10	O=C(Nc1scc(-c2ccc(Cl)cc2)c1C(=O)O)c1nc2c(F)cc(F)cc2o1 [4-(4-chlorophenyl)-2-(4,6-difluorobenzo[d]oxazole-2-carboxamido)thiophene-3-carboxylic acid]
< 10	O=C(Nc1scc(-c2ccc(Cl)cc2)c1C(=O)O)c1cc2c(Cl)cccn2n1 [4-(4-chlorophenyl)-2-(4-chloropyrazolo[1,5-a]pyridine-2-carboxamido)thiophene-3-carboxylic acid]
< 10	O=C(Nc1scc(-c2ccc(Cl)cc2)c1C(=O)O)c1nc(C2CC2)cs1 [4-(4-chlorophenyl)-2-(4-cyclopropylthiazole-2-carboxamido)thiophene-3-carboxylic acid]
< 10	O=C(O)c1c(-c2ccc(Cl)cc2)csc1NC(=O)C1Cc2c(F)cccc2S1 (centres unmarked) [4-(4-chlorophenyl)-2-(4-fluoro-2,3-dihydrobenzo[b]thiophene-2-carboxamido)thiophene-3-carboxylic acid]
< 10	O=C(Nc1scc(-c2ccc(Cl)cc2)c1C(=O)O)c1nc2c(F)cccc2o1 [4-(4-chlorophenyl)-2-(4-fluorobenzo[d]oxazole-2-carboxamido)thiophene-3-carboxylic acid]
< 10	O=C(Nc1scc(-c2ccc(Cl)cc2)c1C(=O)O)c1nc2c(F)cccc2s1 [4-(4-chlorophenyl)-2-(4-fluorobenzo[d]thiazole-2-carboxamido)thiophene-3-carboxylic acid]
< 10	O=C(Nc1scc(-c2ccc(Cl)cc2)c1C(=O)O)c1cc2c(F)cccn2n1 [4-(4-chlorophenyl)-2-(4-fluoropyrazolo[1,5-a]pyridine-2-carboxamido)thiophene-3-carboxylic acid]
